{"source": "patent US20040224884A1", "about": "“Methods of screening for apoptosis-controlling agents for bone anabolic therapies and uses thereof” (priority 1998, published 2004)", "molecules": {"B1": {"name": "PTH: parathyroid hormone, agent known for its role in calcium homeostasis (protein, UniProt P01270 32-115, looked up)", "Parathyroid hormone": "SVSEIQLMHNLGKHLNSMERVEWLRKKLQDVHNFVALGAPLAPRDAGSQRPRKKEDNVLVESHEKSLGEADKADVNVLTKAKSQ", "modifications": "Parathyroid hormone", "notes": "parathyroid hormone, agent known for its role in calcium homeostasis"}}, "key": {"[1]": {"system": "osteoblastic cells derived from murine calvaria", "test": "Etoposide-induced apoptosis of osteoblastic cells, trypan blue uptake", "assay_type": "cell-based", "conditions": "for Lowest Effective Concentration: inhibition of etoposide-induced osteoblast apoptosis, 1 hour pretreatment; for Suppression by 10^−8 M Flutamide: suppression of the anti-apoptotic effect by androgen receptor antagonist; for anti-apoptotic effect on osteoblastic cells after pretreatment with ICI182,780: test agent 10^−8 M, ICI182,780 10^−7 M, 1 h pretreatment", "description": "Osteoblastic cells derived from murine calvaria were pretreated with the sterols for 1 hour before the addition of the pro-apoptotic agent, etoposide. Apoptosis was determined after 6 hours by trypan blue uptake (Jilka et al, J. Bone and Min. Res. 13:793:802, 1998). * indicates p<0.05 versus etoposide alone, by analysis of variance (ANOVA) (Student-Newman-Keuls method).\nOsteoblastic cells derived from murine calvaria were pretreated for 1 hour with the pure receptor antagonist ICI182,780 (10^−7 M) before the addition of the test agents (10^−8 M). Apoptosis was induced and quantified as described in FIG. 3. * indicates p<0.05 versus etoposide alone, by ANOVA (Student-Newman-Keuls method).\nIn this experiment, osteoblastic cells were derived from murine calvaria and were pretreated with the sterols for 1 hour before the addition of the pro-apoptotic agent, etoposide.\nIn these experiments, cells were pretreated with the indicated concentrations of the various compounds for 1 hour, in the absence or presence of the androgen receptor antagonist flutamide, before the addition of the proapoptotic agent etoposide. Apoptosis was determined after 6 hours by trypan blue uptake as described in FIG. 3."}, "[2]": {"conditions": "after one year of treatment; cited from earlier work"}, "[3]": {"conditions": "for at least four years; cited from earlier work"}, "[4]": {"conditions": "rats, intravenously; cited from earlier work"}, "MLO-Y4 osteocytic cells [5]": {"system": "MLO-Y4 osteocytic cells", "test": "Dexamethasone-induced apoptosis of MLO-Y4 cells with PD98059", "assay_type": "cell-based, murine", "conditions": "10^−8 M; PD98059 1 hour pretreatment; dexamethasone 6 hours", "description": "Apoptosis was induced by incubation with the pro-apoptotic agent dexamethasone for 6 hour and quantified as described in FIG. 3. * indicates p<0.05 versus the corresponding control group without dexamethasone, by ANOVA (Student-Newman-Keuls method).\nThat indeed the anti-apoptotic effect of all the compounds tested herein was mediated via activation of ERKs was established by the results of the experiments shown in FIG. 10. […] Apoptosis was induced by incubation with the pro-apoptotic agent dexamethasone for 6 hours and quantified as described in FIG. 3."}, "[6]": {"system": "extracellular signal regulated kinases (ERKs) 1 and 2", "test": "Western blot of phosphorylated ERK1/2 in MLO-Y4 cells", "assay_type": "cell-based, murine", "conditions": "for activation (phosphorylation) of ERKs: 10^−8 M, 5, 15 or 30 minutes; for ability to activate ERKs in the presence of PD98059: 10^−8 M, 5 minutes, 50 μM PD98059", "description": "(§1) MLO-Y4 osteocytic cells were incubated for 25 minutes in serum -free medium. […] Cell lysates were prepared and proteins were separated by electrophoresis in polyacrylamide gels and transferred to PVDF membranes. Western blotting was performed using a specific antibody recognizing phosphorylated ERKs 1 and 2, followed by reblotting with an antibody recognizing total ERKs. Blots were developed by enhanced chemiluminescence.\nas §1, with “MLO-Y4” for “MLO-Y4 osteocytic”, “serum-free medium in the presence or absence of 50 μM PD98059.” for “serum -free medium.”\nas §1, with “In this experiment, MLO-Y4” for “MLO-Y4”, “serum-free” for “serum -free”, “extracellular signal regulated kinases” for “ERKs”, “extracellular signal regulated kinases.” for “ERKs.”, “chemiluminescence. […] This effect is too rapid to be accounted for by the classical mechanism of estrogen action.” for “chemiluminescence.”\nas §1, with “In this experiment, MLO-Y4” for “MLO-Y4”, “serum-free medium in the presence or absence of 50 μM PD98059.” for “serum -free medium.”, “extracellular signal regulated kinases” for “ERKs”, “extracellular signal regulated kinases.” for “ERKs.”"}, "wild type HeLa cells": {"system": "wild type HeLa cells", "test": "Etoposide-induced apoptosis in wild type HeLa cells", "assay_type": "cell-based, human", "conditions": "10^−8 M, 1 h; etoposide 5×10^−5 M, 6 hour", "description": "(§2) CMV promoter alone and CMV promoter-driven cDNA for mERα or mErβ were stably transfected into HeLa cells. […] Cells were trypsinized, pelleted and trypan blue positive cells enumerated.\n(§3) In this experiment, instead of calvaria cells, human HeLa cells which contain undetectable, if any, estrogen receptor were used. HeLa cells were stably transfected with either a CMV promoter-driven cDNA for the murine estrogen receptor-alpha (mERα) or a CMV promoter-driven cDNA for the murine estrogen receptor-beta (mERβ). […] Cells were trypsinized, pelleted and trypan blue positive cells were enumerated."}, "[7]": {"target": "T1, murine estrogen receptor-beta (mERβ) (Mus musculus, UniProt O08537)", "T1 construct": "expressed in transfected cells", "T1 sequence (O08537 whole entry)": "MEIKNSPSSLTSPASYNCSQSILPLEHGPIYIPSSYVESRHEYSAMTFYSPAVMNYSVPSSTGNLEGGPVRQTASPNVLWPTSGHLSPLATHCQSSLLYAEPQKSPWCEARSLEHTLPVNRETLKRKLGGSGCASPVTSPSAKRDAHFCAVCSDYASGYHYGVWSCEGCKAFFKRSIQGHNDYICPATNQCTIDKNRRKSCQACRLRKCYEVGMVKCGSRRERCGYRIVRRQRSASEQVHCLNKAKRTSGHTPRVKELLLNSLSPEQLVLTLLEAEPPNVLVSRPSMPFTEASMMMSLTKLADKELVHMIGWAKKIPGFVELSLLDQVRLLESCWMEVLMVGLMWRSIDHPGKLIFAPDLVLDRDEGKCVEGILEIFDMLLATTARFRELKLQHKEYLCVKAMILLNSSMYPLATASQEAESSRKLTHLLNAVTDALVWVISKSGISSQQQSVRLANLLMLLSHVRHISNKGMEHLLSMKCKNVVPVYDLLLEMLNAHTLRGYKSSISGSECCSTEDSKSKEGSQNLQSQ", "test": "Etoposide-induced apoptosis in HeLa cells stably transfected with mERβ", "assay_type": "cell-based, human", "conditions": "10^−8 M, 1 h; etoposide 5×10^−5 M, 6 hour", "description": "as §2, §3"}, "osteoclasts": {"system": "osteoclasts", "conditions": "increased from approximately 0.5%; cited from earlier work"}, "MLO-Y4 osteocytic cells [8]": {"system": "MLO-Y4 osteocytic cells", "test": "Etoposide-induced apoptosis of MLO-Y4 osteocytic cells, trypan blue uptake", "assay_type": "cell-based, murine", "conditions": "for antiapoptotic effect on osteocytes after pretreatment with ICI182,780: ICI182,780 10^−7 M, 1 h pretreatment; for inhibition of etoposide-induced apoptosis of osteocytic cell line: MLO-Y4, pretreated 1 h before etoposide, apoptosis after 6 h", "description": "Cells were pretreated with the indicated concentrations of the compounds for 1 hour before the addition of the pro-apoptotic agent etoposide. Apoptosis was determined after 6 hour by trypan blue uptake as described in FIG. 3. * indicates p<0.05 versus etoposide alone, by ANOVA (Student-Newman-Keuls method).\nMLO-Y4 cells were pretreated for 1 hour with the pure receptor antagonist ICI182,780 (10^−7 M) before the addition of the test agents (10^−8 M). Apoptosis was induced and quantified as described in FIG. 3. * indicates p<0.05 versus etoposide alone, by ANOVA (Student-Newman-Keuls method).\nIn this experiment, MLO-Y4 cells were pretreated with the indicated concentrations of the various compounds for 1 h before the addition of the pro-apoptotic agent, etoposide. Apoptosis was determined after 6 h by trypan blue uptake as described in FIG. 3."}, "osteoblasts": {"system": "osteoblasts", "conditions": "intermittent administration in mice; from 1.7-2.2%; cited from earlier work"}}}
{"molecule": "C[C@]12CCC(=O)C[C@@H]1CC[C@@H]1[C@@H]2CC[C@]2(C)[C@@H](O)CC[C@@H]12", "note": "[5-β-dihydrotestosterone]", "values": [{"measurement": "Lowest Effective Concentration", "setting": "[1]", "result": "10^−10 M"}, {"measurement": "Suppression by 10^−8 M Flutamide", "setting": "[1]", "result": "yes"}]}
{"molecule": "C[C@]12CCC(=O)C=C1CC[C@@H]1[C@@H]2CC[C@]2(C)C(=O)CC[C@@H]12", "note": "[4-androstene-3,17-dione]", "values": [{"measurement": "Suppression by 10^−8 M Flutamide", "setting": "[1]", "result": "yes"}]}
{"molecule": "CC(O)(P(=O)(O)O)P(=O)(O)O", "note": "[etidronate]", "values": [{"measurement": "reduction of resorption depth in human iliac trabecular bone", "setting": "[2]", "result": "~30", "unit": "%"}]}
{"molecule": "C[C@]12CCC(=O)C[C@@H]1CC[C@@H]1[C@@H]2CC[C@]2(C)[C@@H](O)CC[C@@H]12", "note": "[5-α-dihydrotestosterone]", "values": [{"measurement": "Lowest Effective Concentration", "setting": "[1]", "result": "10^−9 M"}, {"measurement": "Suppression by 10^−8 M Flutamide", "setting": "[1]", "result": "yes"}]}
{"molecule": "C[C@]1(O)CC[C@H]2[C@@H]3CCC4=CC(=O)CCC4=C3C=C[C@@]21C", "note": "[RU1881]", "values": [{"measurement": "Lowest Effective Concentration", "setting": "[1]", "result": "10^−8 M"}, {"measurement": "Suppression by 10^−8 M Flutamide", "setting": "[1]", "result": "yes"}]}
{"molecule": "[F-].[Na+]", "note": "[sodium fluoride]", "values": [{"measurement": "increase in vertebral bone mass", "setting": "[3]", "result": 10, "unit": "% a year"}]}
{"molecule": "CC(=O)N[C@@H](CS)C(=O)O", "note": "[N-acetylcysteine, acetamido-mercaptopropionic acid]", "values": [{"measurement": "LD50", "setting": "[4]", "result": 1140, "unit": "mg/kg"}]}
{"molecule": "C[C@]12CC[C@@H]3c4ccc(O)cc4CC[C@H]3[C@@H]1CC[C@@H]2O", "note": "[17β-estradiol]", "values": [{"measurement": "anti-apoptotic effect after pretreatment with PD98059", "setting": "MLO-Y4 osteocytic cells [5]", "result": "prevented the anti-apoptotic effect"}, {"measurement": "activation (phosphorylation) of ERKs", "setting": "[6]", "result": "activated"}, {"measurement": "ability to activate ERKs in the presence of PD98059", "setting": "[6]", "result": "abrogated"}, {"measurement": "inhibition of etoposide-induced osteoblastic cell apoptosis", "setting": "[1]; pretreated 1 hour before etoposide, apoptosis after 6 hours by trypan blue uptake", "result": "prevented apoptosis"}, {"measurement": "anti-apoptotic effect on osteoblastic cells after pretreatment with ICI182,780", "setting": "[1]", "result": "abrogated"}, {"measurement": "effect on etoposide-induced apoptosis of wild type HeLa cells", "setting": "wild type HeLa cells", "result": "none of the three compounds had any effect"}, {"measurement": "inhibition of etoposide-induced apoptosis in HeLa cells transfected with estrogen receptor β", "setting": "[7]", "result": "potently inhibited"}, {"measurement": "apoptosis of osteoclasts", "setting": "osteoclasts", "result": "≤ 2.7", "unit": "%"}, {"measurement": "antiapoptotic effect on osteocytes after pretreatment with ICI182,780", "setting": "MLO-Y4 osteocytic cells [8]", "result": "abrogated"}, {"measurement": "inhibition of etoposide-induced apoptosis of osteocytic cell line", "setting": "MLO-Y4 osteocytic cells [8]", "result": "dose-dependently inhibited"}]}
{"molecule": "C[C@]12CC[C@@H]3c4ccc(O)cc4CC[C@H]3[C@@H]1CC[C@H]2O", "note": "[17α-estradiol]", "values": [{"measurement": "anti-apoptotic effect after pretreatment with PD98059", "setting": "MLO-Y4 osteocytic cells [5]", "result": "prevented the anti-apoptotic effect"}, {"measurement": "activation (phosphorylation) of ERKs", "setting": "[6]", "result": "activated"}, {"measurement": "ability to activate ERKs in the presence of PD98059", "setting": "[6]", "result": "abrogated"}, {"measurement": "anti-apoptotic effect on osteoblastic cells after pretreatment with ICI182,780", "setting": "[1]", "result": "abrogated"}, {"measurement": "effect on etoposide-induced apoptosis of wild type HeLa cells", "setting": "wild type HeLa cells", "result": "none of the three compounds had any effect"}, {"measurement": "inhibition of etoposide-induced apoptosis in HeLa cells transfected with estrogen receptor β", "setting": "[7]", "result": "potently inhibited"}, {"measurement": "antiapoptotic effect on osteocytes after pretreatment with ICI182,780", "setting": "MLO-Y4 osteocytic cells [8]", "result": "abrogated"}, {"measurement": "inhibition of etoposide-induced apoptosis of osteocytic cell line", "setting": "MLO-Y4 osteocytic cells [8]", "result": "dose-dependently inhibited"}]}
{"molecule": "C[C@]12CC[C@H](OS(=O)(=O)O)CC1=CC[C@@H]1[C@@H]2CC[C@]2(C)C(=O)CC[C@@H]12", "note": "[Dehydroisoandrosterone-3-sulfate (DHES), Dehydroisoandrosterone-3-sulfate]", "values": [{"measurement": "Lowest Effective Concentration", "setting": "[1]", "result": "10^−8 M"}, {"measurement": "Suppression by 10^−8 M Flutamide", "setting": "[1]", "result": "no*"}]}
{"molecule": "C[C@]12CC[C@H]3[C@@H](CCC4=CC(=O)CC[C@@]43C)[C@@H]1CC[C@@H]2O", "note": "[Testosterone]", "values": [{"measurement": "Suppression by 10^−8 M Flutamide", "setting": "[1]", "result": "yes"}]}
{"molecule": "C[C@]12CC[C@H]3[C@@H](CC=C4C[C@@H](O)CC[C@@]43C)[C@@H]1CC[C@@H]2O", "note": "[5-androstene-3β-17_-diol]", "values": [{"measurement": "Lowest Effective Concentration", "setting": "[1]", "result": "10^−8 M"}, {"measurement": "Suppression by 10^−8 M Flutamide", "setting": "[1]", "result": "yes"}]}
{"molecule": "B1", "values": [{"measurement": "prevalence of osteoblast apoptosis", "setting": "osteoblasts", "result": "0.1-0.4%"}]}
